Source: patent EP4108244A1, “SS-LACTAM ANTIBIOTIC WITH SIGNIFICANT ACTIVITY AGAINST CANCER E.G. COLON MALIGNANCIES” (priority 2021, dated 2022)
Values joined by “and” are separate entries in the source; they are usually repeats but may differ in a detail not shown here. Identical values can stand only once. Marks after values point to notes of the source that are not given here.

Experiments:
HCT-116 cells [1] = assay: MTT metabolic activity assay; type: cell-based, human; conditions: 48 h post-treatment, CFT 100 µg/mL, CFP 50 µg/mL combined with 5-FU
DLD-1 cells [2] = assay: MTT metabolic activity assay; type: cell-based, human
Description: MTT assay was used to assess the proliferation rate of HCT-116 and DLD-1 cells. In this assay the ability of metabolically active cells to convert tetrazolium salt into a blue formazan product is measured. The absorption of the dissolved formazan was quantified at 540 nm by an ELISA reader (Bio-Rad iMark Microplate Reader).
Cells were plated at 2^∗104cells/ml in 96-well plates and incubated overnight. […] Metabolic activity of the cells was studied using the MTT assay that measures the ability of metabolically active cells to convert tetrazolium salt into a blue formazan product, the absorbance of which is recorded at 540 nm by an ELISA reader (Bio-Rad iMark Microplate Reader).

Caco-2 cells = assay: MTT metabolic activity assay; type: cell-based, human; conditions: 24 h post-treatment, 5-Fluorouracil 4µM
Description: (§1) Cells were plated at 2^∗104cells/ml in 96-well plates and incubated overnight. The following day, cells were treated in triplicate with Ceftazdime or 5-fluorouracil for 24-48 h, depending on the cell line used. Metabolic activity of the cells was studied using the MTT assay that measures the ability of metabolically active cells to convert tetrazolium salt into a blue formazan product, the absorbance of which is recorded at 540 nm by an ELISA reader (Bio-Rad iMark Microplate Reader).

RAW 264.7 cells = assay: MTT metabolic activity assay on macrophages; type: cell-based, murine
Description: as §1

HCT-116 cells [3] = assay: Cell cycle distribution, propidium iodide staining; type: cell-based, human; conditions: CFT 100 µg/mL, CFP 50 µg/mL, 5-FU 8 µM, alone or combined, mean ± SE
Description: Propidium iodide (PI) staining was used to evaluate the effect of the different treatments on the cell cycle. […] Fixed cells, which were washed with PBS and incubated at 37 °C for 1 h with 50 µl RNase (1 mg/ml) (Sigma Aldrich, Germany), were stained for 15 minutes with PI (Molecular Probes, Eugene, Oregon, USA).

DLD-1 cells [4] = assay: Cell cycle distribution, propidium iodide staining; type: cell-based, human; conditions: for accumulation of dead cells in the pre-G1 phase vs. control: CFT alone
Description: Propidium iodide (PI) staining was used to evaluate the effect of the different treatments on the cell cycle. […] 48 h and 72 h post-treatment, collected cells were fixed with ice-cold ethanol (70%) and stored at - 20 °C for at least 2 h. Fixed cells, which were washed with PBS and incubated at 37 °C for 1 h with 50 µl RNase (1 mg/ml) (Sigma Aldrich, Germany), were stained for 15 minutes with PI (Molecular Probes, Eugene, Oregon, USA). Cell cycle was monitored using BD FACSDiva™ and the percentage of cells in the different phases of the cell cycle (pre-Gi, G0/G1, S, and G2/M) phases was determined using BD FACSDiva™ Software.
Propidium iodide (PI) staining was used to evaluate the effect of the different treatments (Ceftazidime (100 µg/ml) or 5-Fluorouracil (16 µM)) on the cell cycle profile of DLD-1 cells. Briefly, DLD-1 cells were plated at 5^∗104/ml and treated for 48 h and 72 h. Collected cells were fixed with ice-cold ethanol (70%) and stored at -20°C for at least 2 h. Fixed cells, which were washed with PBS and incubated at 37°C for 1 h with 50 µl RNase (1 mg/ml) (Sigma Aldrich, Germany), were stained for 15 minutes with PI (Molecular Probes, Eugene, Oregon, USA). Cell cycle was monitored using BD FACSDiva™ and the percentage of cells in the different phases of the cell cycle (pre-Gi, G0/G1, S, and G2/M) phases was determined using BD FACSDiva™ Software.

DLD-1 cells [5] = assay: Caspase-3/7 activity assay; type: cell-based, human; conditions: CFT 100 µg/ml alone, vs. control untreated cells
Description: (§2) Caspase-3/7 activity was measured 48 h and 72 h post-treatment according to the manufacturer's protocol (Caspase-Glo-3/7 Assay, Promega Corp, Madison, WI, USA). Briefly, equal volume from treated cells and caspase-3/7 mixture were incubated at room temperature for 3 h and the luminescence was measured by a microplate reader.
as §2, with “DLD-1 cells were treated with CFT (100 µg/ml) or 5-Fluorouracil (16 µM). Caspase-3/7” for “Caspase-3/7”, “caspase 3/7” for “caspase-3/7”

HCT-116 cells [6] = assay: Caspase-3/7 activity assay; type: cell-based, human; conditions: combined with 5-FU 8 µM, 48 and 72h, CFT 100 µg/ml, CFP 50 µg/ml
Description: as §2

DLD-1 cells [7] = assay: Antibiotics' uptake by the cells, LC-MS/MS; conditions: for Concentration of CFT, Lysate / Concentration of CFT, Supernatant: CFT 100 µg/ml alone or + 5-FU 16 µM
Description: (§3) This step was repeated three times and cell homogenate were vortexed at high-speed prior extraction. 40 µl from each supernatant and cell suspension were combined with 200 µl of internal standard working solution prepared in ice-cold methanol. Samples were then centrifuged and 100 µl of the supernatant were diluted with 400 µl water in glass vials prior analysis with LC-/MS/MS.

HCT-116 cells [8] = assay: Antibiotics' uptake by the cells, LC-MS/MS; conditions: for Concentration of CFT, Lysate / Concentration of CFT, Supernatant: CFT 100 µg/ml alone or + 5-FU 8 µM
Description: as §3

[9] = 48 h, CFT 100 µg/mL, CFP 50 µg/mL, 5-FU 16 µM, alone or combined, mean ± SE
[10] = 72 h, CFT 100 µg/mL, CFP 50 µg/mL, 5-FU 16 µM, alone or combined, mean ± SE

CC(C)(O/N=C(\C(=O)N[C@@H]1C(=O)N2C(C(=O)[O-])=C(C[n+]3ccccc3)CS[C@H]12)c1csc(N)n1)C(=O)O [CFT, (6R,7R)-7-[[(2Z)-2-(2-amino-1,3-thiazol-4-yl)-2-(2-carboxypropan-2-yloxyimino)acetyl]amino]-8-oxo-3-(pyridin-1-ium-1-ylmethyl)-5-thia-1-azabicyclo[4.2.0]oct-2-ene-2-carboxylate]
effect on 5-FU's effect on metabolic activity (in words) (HCT-116 cells [1]): antagonized 5-FU's effect
inhibitory effect vs. control untreated cells (metabolic activity) (DLD-1 cells [2]; 48 h post-treatment, 5-Fluorouracil 16µM): 18%
metabolic activity (in words) (DLD-1 cells [2]; CFT alone (100 µg/ml), 72 h post-treatment): significant decrease in the metabolic activity
inhibition of proliferation (metabolic activity) (Caco-2 cells): 30%
metabolic activity of macrophages (in words) (RAW 264.7 cells): restored to control untreated cells
percentage of cells in G2/M (HCT-116 cells [3]; 48 h): 24.4 ± 1.2%
percentage of cells in Pre G1 (HCT-116 cells [3]; 48 h): 6.4 ± 2.3^(a) %
percentage of cells in S (HCT-116 cells [3]; 48 h): 12.8 ± 2.9%
percentage of cells in G0/G1 (HCT-116 cells [3]; 72 h): 56.9 ± 1.3^(a) %
percentage of cells in G2/M (HCT-116 cells [3]; 72 h): 24.3 ± 0.5^(a) %
percentage of cells in Pre G1 (HCT-116 cells [3]; 72 h): 9.8% and 9.8 ± 0.9^(a) %
percentage of cells in S (HCT-116 cells [3]; 72 h): 6.6 ± 1.0%
percentage of cells in G0/G1 (DLD-1 cells [4]; [9]): 52.6 ± 3.3%
percentage of cells in Pre G1 (DLD-1 cells [4]; [9]): 9.3 ± 2.5^(a) %
percentage of cells in S (DLD-1 cells [4]; [9]): 14.6 ± 3.2%
accumulation of dead cells in the pre-G1 phase vs. control (DLD-1 cells [4]; 48 h): 1.9 fold
percentage of cells in G0/G1 (DLD-1 cells [4]; [10]): 38.2 ± 4.3^(a) %
percentage of cells in G2/M (DLD-1 cells [4]; [10]): 12.0 ± 1.6^(a) %
percentage of cells in Pre G1 (DLD-1 cells [4]; [10]): 40.6 ± 5.2^(a) %
percentage of cells in S (DLD-1 cells [4]; [10]): 8.4 ± 0.6%
accumulation of dead cells in the pre-G1 phase vs. control (DLD-1 cells [4]; 72h): 9.4 fold
increase of the activity of caspase 3/7 (DLD-1 cells [5]; 48 h): 20%
increase of the activity of caspase 3/7 (DLD-1 cells [5]; 72 h): 32.1%
effect on 5-FU-induced apoptosis (caspase 3/7, in words) (HCT-116 cells [6]): antagonized 5-FU-induced apoptosis
Concentration of CFT, Lysate (DLD-1 cells [7]; 2 h): 0.024 ± 0.003
Concentration of CFT, Supernatant (DLD-1 cells [7]; 2 h): 100.000 ± 2.970
Concentration of CFT, Lysate (DLD-1 cells [7]; 4 h): 0.026 ± 0.002
Concentration of CFT, Supernatant (DLD-1 cells [7]; 4 h): 97.073 ± 5.728
Concentration of CFT, Lysate (DLD-1 cells [7]; 6 h): 0.033 ± 0.003
Concentration of CFT, Supernatant (DLD-1 cells [7]; 6 h): 91.335 ± 7.637
Concentration of CFT, Lysate (DLD-1 cells [7]; 8 h): 0.032 ± 0.001
Concentration of CFT, Supernatant (DLD-1 cells [7]; 8 h): 98.126 ± 5.940
average uptake by the cells (DLD-1 cells [7]; up to 8h): around 0.02%
uptake of CFT (DLD-1 cells [7]; up to 8 h, CFT 100 µg/ml): 0.019-0.025%
Concentration of CFT, Lysate (HCT-116 cells [8]; HCT-116 cells, 2 h): 0.047 ± 0.003
Concentration of CFT, Supernatant (HCT-116 cells [8]; HCT-116 cells, 2 h): 96.900 ± 3.818
Concentration of CFT, Lysate (HCT-116 cells [8]; HCT-116 cells, 4 h): 0.066 ± 0.012
Concentration of CFT, Supernatant (HCT-116 cells [8]; HCT-116 cells, 4 h): 105.000 ± 4.168
Concentration of CFT, Lysate (HCT-116 cells [8]; HCT-116 cells, 6 h): 0.056 ± 0.001
Concentration of CFT, Supernatant (HCT-116 cells [8]; HCT-116 cells, 6 h): 96.750 ± 8.697
Concentration of CFT, Lysate (HCT-116 cells [8]; HCT-116 cells, 8 h): 0.053 ± 0.010
Concentration of CFT, Supernatant (HCT-116 cells [8]; HCT-116 cells, 8 h): 88.900 ± 8.326
uptake of CFT (HCT-116 cells [8]; HCT-116 cells, up to 8 h, CFT 100 µg/ml): 0.047-0.066%
average uptake in HCT-116 cells compared to DLD-1 cells (HCT-116 cells [8]; up to 8h): 2 folds
uptake in HCT-116 cells compared to DLD-1 cells (HCT-116 cells [8]; up to 8 h, CFT 100 µg/ml): ~2.5 fold
